# Experimental data published in ChEMBL document CHEMBL5726417, “Therapeutic agent for pain” (2017).
# Target: 11-beta-hydroxysteroid dehydrogenase 1 (Rattus norvegicus, UniProt P16232)
# Test: Inhibition Assay: The procedure for measuring the 11β-HSD1-inhibitory activity is as follows. The enzyme reaction and the measurement were carried out using a 384-well plate. The enzyme was prepared in accordance with Journal of Biological Chemistry, 2001, Vol. 276, p. 21343-21350. The reaction was carried out by adding a test compound at various concentrations to a reaction liquid consisting of a 5 mM phosphate buffer (pH 6.6), 200 nM cortisone, 40 μM reduced nicotinamide adenine dinucleotide phosphate (NADPH), and rat recombinant 11β-HSD1, followed by incubating at room temperature for one hour (10 μl/well). The test compound was prepared by dissolving in dimethyl sulfoxide (DMSO) such that a DMSO concentration reached 1% in the reaction liquid. After the enzyme reaction was completed, the enzyme inhibitory action was measured by detecting cortisol using a homogeneous time-resolved fluorescence (HTRF) method. Each of a d2-labeled cortisol containing 400 μM carbenoxolone and a cryptate-labeled cortisol antibody (CIS Bio International Co., Ltd.) was added at 5 μl/well, followed by incubating at room temperature for 2 hours, and then the fluorescence intensity was measured using a fluorophotometer (trade name: ARVO HTS 1420, Perkin Elmer/Wallac), and the enzyme inhibitory activity was calculated from the fluorescence intensity ratio of two wavelengths (665 nm/620 nm).The measurement results were calculated by averaging the values of 3 wells of the same condition. The ratio when DMSO was added instead of the test compound was taken as 0% and the ratio when 11β-HSD1 was not added was taken as 100%, thereby calculating the 50% inhibition concentration of the test compound as IC50 of the compound inhibitory activity.
# 11-beta-hydroxysteroid dehydrogenase 1, sequence (P16232 whole entry): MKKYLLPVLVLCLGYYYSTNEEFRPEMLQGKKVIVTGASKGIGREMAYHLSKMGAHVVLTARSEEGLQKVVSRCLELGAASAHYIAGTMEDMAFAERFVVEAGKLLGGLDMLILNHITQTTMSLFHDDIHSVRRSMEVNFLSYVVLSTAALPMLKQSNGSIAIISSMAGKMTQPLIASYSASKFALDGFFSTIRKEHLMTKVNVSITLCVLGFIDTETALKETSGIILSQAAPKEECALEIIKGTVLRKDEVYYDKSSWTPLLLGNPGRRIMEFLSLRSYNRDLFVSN
row,IC50,SMILES
1,52 nM,Cn1c(-c2ccc(F)cc2Cl)nnc1C(C)(C)Oc1c(F)cc(F)cc1F
2,70 nM,CCn1c(-c2ccc(C(N)=O)cc2)nnc1C(C)(C)Oc1c(F)cc(Cl)cc1F
3,23 nM,CC(C)n1c(-c2ccc(C(N)=O)cc2F)nnc1C(C)(C)Oc1c(F)cc(F)cc1F
4,135 nM,Cn1c(-c2ccc(C(N)=O)cc2F)nnc1C(C)(C)Oc1c(F)cc(Cl)cc1F [CLOFUTRIBEN]
